The nature of the data set: method code SF-AS, from Mauleón, D.; Pujol, M.; Rosell, G. (1988). B-Adrenergic antagonists: N-alkyl and N-amidoethyl (arylalkoxy)propanolamines related to propranolol. Eur J Med Chem, 23, 421-426.

Drawing on the SangsterLogP compilation, this text covers logP for 26 compounds.

Usually logP stands for the decadic logarithm of the partition coefficient of the neutral form, usually between octanol and water. `CC(C)(C)NCC(O)COCCOc1ccccc1` (stereo unspecified) displayed a logP of 2.35.
For the compound `CC(C)C(=O)NCCNCC(O)COCc1ccccc1` (stereo unspecified), the logP was 0.63.
Consider `CC(C)NCC(O)COC1CCCc2ccccc21` (stereo unspecified), for which the logP came out at 3.42.
Regarding `CC(C)(C)NCC(O)COc1ccccc1` (stereo unspecified), the logP is 1.5.
With `O=C(Cc1ccccc1)NCCNCC(O)COc1ccccc1` (stereo unspecified), the logP stood at 0.63.
The result for `CC(C)C(=O)NCCNCC(O)COCC=Cc1ccccc1` (stereo unspecified) reads 0.51; that for `O=C(Cc1ccccc1)NCCNCC(O)COCCc1ccccc1` (stereo unspecified), 1.24; that for `CC(C)NCC(O)COCCOc1ccccc1` (stereo unspecified), 1.63.
The compound `O=C(Cc1ccccc1)NCCNCC(O)COC1CCCc2ccccc21` (stereo unspecified) showed a logP of 1.68.
`CC(C)C(=O)NCCNCC(O)COCCOc1ccccc1` (stereo unspecified) gave a logP of 0.48.
On to `CC(C)NCC(O)COC/C=C/c1ccccc1` (stereo unspecified), for which the logP worked out at 2.15.
As to `CC(C)NCC(O)COCCc1ccccc1` (stereo unspecified), the logP worked out at 1.76.
Next, `CC(CCCOCC(O)CNC(C)(C)C)c1ccccc1` (stereo unspecified): 2.29.
Next, `CC(C)NCC(O)COCCCc1ccccc1` (stereo unspecified): 1.54; `CC(C)C(=O)NCCNCC(O)COCCCc1ccccc1` (stereo unspecified): 1.25; `CC(C)NCC(O)COCCCC(C)c1ccccc1` (stereo unspecified): 2.95.
Turning to `CC(C)C(=O)NCCNCC(O)COCCc1ccccc1` (stereo unspecified), the logP worked out at 0.95.
Turning to `CC(C)(C)NCC(O)COC1CCCc2ccccc21` (stereo unspecified), the logP was found to be 3.55.
As to `O=C(Cc1ccccc1)NCCNCC(O)COCCOc1ccccc1` (stereo unspecified), the logP worked out at 0.75.
As for `CC(C)C(=O)NCCNCC(O)COc1ccccc1` (stereo unspecified), the logP turned out to be 1.14.
In turn, `O=C(Cc1ccccc1)NCCNCC(O)COCc1ccccc1` (stereo unspecified) displayed a logP of 1.05.
Consider `CC(C)(C)NCC(O)COCc1ccccc1` (stereo unspecified), for which the logP came out at 1.7.
The compound `O=C(Cc1ccccc1)NCCNCC(O)COCC=Cc1ccccc1` (stereo unspecified) displayed a logP of 1.76.
Turning to `CC(C)(C)NCC(O)COCCc1ccccc1` (stereo unspecified), the logP came to 2.51.
As for `CC(C)NCC(O)COCc1ccccc1` (stereo unspecified), the logP was determined as 1.62.
Turning to `CC(C)C(=O)NCCNCC(O)COC1CCCc2ccccc21` (stereo unspecified), the logP came to 1.99.
